According to PubChem BioAssay AID248 (DTP/NCI, 2004):
“And” between values parts separate entries of the source, which are not always exact repeats. Equal entries are not always repeated. Toxic doses and inconclusive results are not listed. No stated cut-off is given here; in the data, active means T/C of 150% or more; inactive means T/C below 125%.

Tested on: L1210 leukemia ip in BDF1 mice, survival T/C
Assay: NCI In Vivo Anticancer Drug Screen. Data for tumor model L1210 Leukemia (intraperitoneal) in B6D2F1 (BDF1) mice
Settings: endpoint: mean survival time, higher = longer survival
Outline: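 In this screen, tumor-bearing mice given compound are compared to those given vehicle, and their survival values are reported as a treated-to-control quotient.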

Measured: T/C

O=C(Nc1ccc(C2=NCCCN2)cc1)c1ccc(C(=O)Nc2ccc(C3=NCCCN3)cc2)cc1
inactive: dose: 0.5 mg/kg/injection, schedule: Q01DX Z (ip), vehicle: carboxymethylcellulose (CMC) 95 % of control | dose: 0.5 mg/kg/injection, schedule: Q01DX Z (iv), vehicle: saline 100 % of control | dose: 0.8 mg/kg/injection, schedule: Q01DX Z (ip), vehicle: carboxymethylcellulose (CMC) 101 % of control | dose: 1.0 mg/kg/injection, schedule: Q01DX010 (iv), vehicle: other 103 % of control | dose: 1.0 mg/kg/injection, schedule: Q01DX Z (iv), vehicle: saline 107 % of control | dose: 1.2 mg/kg/injection, schedule: Q01DX Z (ip), vehicle: carboxymethylcellulose (CMC) 103 % of control | dose: 2.0 mg/kg/injection, schedule: Q01DX Z (iv), vehicle: saline 111 % of control | dose: 8.0 mg/kg/injection, schedule: Q01DX010 (ip), vehicle: other 97 % of control and 115 % of control | dose: 16.0 mg/kg/injection, schedule: Q01DX010 (ip), vehicle: other 103 % of control and 89 % of control | dose: 16.0 mg/kg/injection, schedule: Q01DX010 (iv), vehicle: saline 117 % of control | dose: 16.0 mg/kg/injection, schedule: Q01DX010 (sc), vehicle: olive oil, sesame oil, peanut oil 113 % of control | dose: 21.3 mg/kg/injection, schedule: Q01DX Z (ip), vehicle: carboxymethylcellulose (CMC) 119 % of control | dose: 22.0 mg/kg/injection, schedule: Q01DX010 (sc), vehicle: olive oil, sesame oil, peanut oil 101 % of control | dose: 30.0 mg/kg/injection, schedule: Q01DX Z (oral), vehicle: carboxymethylcellulose (CMC) 95 % of control | dose: 31.3 mg/kg/injection, schedule: Q01DX010 (sc), vehicle: olive oil, sesame oil, peanut oil 119 % of control and 89 % of control | dose: 31.3 mg/kg/injection, schedule: Q02DX004 (im), vehicle: olive oil, sesame oil, peanut oil 116 % of control and 124 % of control | dose: 32.0 mg/kg/injection, schedule: Q01DX Z (ip), vehicle: carboxymethylcellulose (CMC) 123 % of control | dose: 44.0 mg/kg/injection, schedule: Q01DX Z (sc), vehicle: saline 109 % of control | dose: 48.0 mg/kg/injection, schedule: Q01DX Z (ip), vehicle: carboxymethylcellulose (CMC) 94 % of control | dose: 60.0 mg/kg/injection, schedule: Q01DX Z (oral), vehicle: carboxymethylcellulose (CMC) 91 % of control | dose: 62.5 mg/kg/injection, schedule: Q01DX001 (im), vehicle: steriod suspending solution 106 % of control | dose: 62.5 mg/kg/injection, schedule: Q01DX010 (oral), vehicle: other 111 % of control | dose: 62.5 mg/kg/injection, schedule: Q02DX004 (im), vehicle: olive oil, sesame oil, peanut oil 100 % of control and 107 % of control | dose: 66.0 mg/kg/injection, schedule: Q01DX Z (sc), vehicle: saline 102 % of control | dose: 72.0 mg/kg/injection, schedule: Q01DX Z (ip), vehicle: carboxymethylcellulose (CMC) 100 % of control | dose: 88.5 mg/kg/injection, schedule: Q#A X Z (oral), vehicle: saline 115 % of control | dose: 100.0 mg/kg/injection, schedule: Q01DX Z (sc), vehicle: saline 105 % of control | dose: 120.0 mg/kg/injection, schedule: Q01DX Z (oral), vehicle: carboxymethylcellulose (CMC) 91 % of control | dose: 125.0 mg/kg/injection, schedule: Q01DX001 (im), vehicle: steriod suspending solution 108 % of control | dose: 125.0 mg/kg/injection, schedule: Q02DX004 (im), vehicle: olive oil, sesame oil, peanut oil 98 % of control and 105 % of control | dose: 150.0 mg/kg/injection, schedule: Q01DX Z (sc), vehicle: saline 98 % of control and 103 % of control | dose: 177.0 mg/kg/injection, schedule: Q01DX Z (oral), vehicle: saline 109 % of control | dose: 250.0 mg/kg/injection, schedule: Q01DX001 (im), vehicle: steriod suspending solution 93 % of control | dose: 250.0 mg/kg/injection, schedule: Q02DX004 (im), vehicle: olive oil, sesame oil, peanut oil 100 % of control and 104 % of control | dose: 300.0 mg/kg/injection, schedule: Q01DX Z (sc), vehicle: saline 105 % of control | dose: 500.0 mg/kg/injection, schedule: Q## X010 (oral), vehicle: saline 121 % of control | dose: 531.0 mg/kg/injection, schedule: Q03DX Z (oral), vehicle: saline 105 % of control | dose: 798.0 mg/kg/injection, schedule: Q03DX Z (oral), vehicle: saline 107 % of control | dose: 900.0 mg/kg/injection, schedule: Q01DX Z (oral), vehicle: saline 124 % of control | dose: 1200.0 mg/kg/injection, schedule: Q03DX Z (oral), vehicle: saline 98 % of control | dose: 1239.0 mg/kg/injection, schedule: Q07DX Z (oral), vehicle: saline 102 % of control | dose: 1800.0 mg/kg/injection, schedule: Q03DX Z (oral), vehicle: saline 111 % of control | dose: 1862.0 mg/kg/injection, schedule: Q07DX Z (oral), vehicle: saline 105 % of control | dose: 2700.0 mg/kg/injection, schedule: Q03DX Z (oral), vehicle: saline 121 % of control | dose: 2800.0 mg/kg/injection, schedule: Q07DX Z (oral), vehicle: saline 101 % of control | dose: 4200.0 mg/kg/injection, schedule: Q07DX Z (oral), vehicle: saline 105 % of control
active: dose: 1.0 mg/kg/injection, schedule: Q01DX010 (ip), vehicle: other 160 % of control | dose: 2.0 mg/kg/injection, schedule: Q01DX010 (ip), vehicle: other 174 % of control and 235 % of control | dose: 2.0 mg/kg/injection, schedule: Q01DX010 (ip), vehicle: saline 155 % of control | dose: 2.0 mg/kg/injection, schedule: Q01DX010 (iv), vehicle: other 180 % of control | dose: 2.8 mg/kg/injection, schedule: Q01DX Z (ip), vehicle: carboxymethylcellulose (CMC) 277 % of control | dose: 4.0 mg/kg/injection, schedule: Q01DX010 (ip), vehicle: other 205 % of control and 217 % of control and 265 % of control | dose: 4.0 mg/kg/injection, schedule: Q01DX010 (ip), vehicle: saline 208 % of control and 235 % of control | dose: 4.0 mg/kg/injection, schedule: Q01DX010 (iv), vehicle: other 237 % of control | dose: 4.0 mg/kg/injection, schedule: Q01DX010 (iv), vehicle: saline 203 % of control | dose: 4.0 mg/kg/injection, schedule: Q01DX Z (iv), vehicle: other 202 % of control | dose: 4.0 mg/kg/injection, schedule: Q01DX Z (iv), vehicle: saline 238 % of control | dose: 4.2 mg/kg/injection, schedule: Q01DX Z (ip), vehicle: carboxymethylcellulose (CMC) 280 % of control | dose: 6.3 mg/kg/injection, schedule: Q01DX Z (ip), vehicle: carboxymethylcellulose (CMC) 209 % of control and 229 % of control | dose: 8.0 mg/kg/injection, schedule: Q01DX010 (ip), vehicle: saline 229 % of control and 338 % of control | dose: 8.0 mg/kg/injection, schedule: Q01DX010 (iv), vehicle: saline 161 % of control | dose: 8.0 mg/kg/injection, schedule: Q01DX Z (iv), vehicle: saline 182 % of control | dose: 9.4 mg/kg/injection, schedule: Q01DX Z (ip), vehicle: carboxymethylcellulose (CMC) 211 % of control | dose: 200.0 mg/kg/injection, schedule: Q#A X Z (oral), vehicle: saline 161 % of control | dose: 250.0 mg/kg/injection, schedule: Q01DX010 (oral), vehicle: other 183 % of control | dose: 333.0 mg/kg/injection, schedule: Q## X010 (oral), vehicle: saline 153 % of control | dose: 400.0 mg/kg/injection, schedule: Q01DX Z (oral), vehicle: saline 158 % of control | dose: 500.0 mg/kg/injection, schedule: Q01DX010 (oral), vehicle: other 181 % of control | dose: 600.0 mg/kg/injection, schedule: Q01DX Z (oral), vehicle: saline 151 % of control and 163 % of control
109 % of control and 211 % of control: dose: 1.9 mg/kg/injection, schedule: Q01DX Z (ip), vehicle: carboxymethylcellulose (CMC)

O=NN(CCCl)C(=O)NC12CC3CC(CC(C3)C1)C2
active: dose: 62.0 mg/kg/injection, schedule: Q01DX001 (ip), vehicle: carboxymethylcellulose (CMC) 270 % of control | dose: 93.0 mg/kg/injection, schedule: Q01DX001 (ip), vehicle: carboxymethylcellulose (CMC) 250 % of control | dose: 125.0 mg/kg/injection, schedule: Q01DX001 (ip), vehicle: carboxymethylcellulose (CMC) 255 % of control | dose: 187.0 mg/kg/injection, schedule: Q01DX001 (ip), vehicle: carboxymethylcellulose (CMC) 182 % of control

Nc1ccc2ccc(O)cc2c1
inactive: dose: 200.0 mg/kg/injection, schedule: Q04DX003 (ip), vehicle: saline 121 % of control
